From publication PMC9227578, “Insight into the Molecular Mechanism for the Discrepant Inhibition of Microcystins (MCLR, LA, LF, LW, LY) on Protein Phosphatase 2A” (Toxins, 2022) come the findings set out here.

This assay deals with PP2A. In words: colorimetric protein phosphatase (PP2A) inhibition assay. It is filed as biochemical. The procedure: The biological toxicity of the typical MCs was evaluated by a colorimetric protein phosphatase inhibition assay modified by Zong et al.. First, PP2A was diluted to 5 U/mL with a buffer solution (50 mM Tris-HCl pH 7.4, 2.0 mM dithiothreitol, 1 mM MnCl2) and 1.0 g/L bovine serum albumin. Then, 10 μL of PP2A and 100 μL of test samples were mixed in a 96-well polystyrene microplate. With gentle shaking, the microtiter plates were kept at 25.0 °C for 15 min, and 90 μL p-nitrophenyl disodium orthophosphate (5 mM) was added. After 1 h, the absorbances at 405 nm were measured in a microplate reader. The inhibition of the test samples on PP2A was calculated by the formula of IPP2A (%) = (Acontrol − Asample)/Acontrol × 100%. Acontrol and Asample were the absorbance of the reference sample ([…]) and the test sample at 405 nm, respectively.

On to MCLY, for which the “inhibition effect on PP2A” value is listed as “lower inhibition” and the “inhibition sequence on PP2A” value is “MCLR > MCLW > MCLA > MCLF > MCLY”.

In the case of MCLA, the “inhibition sequence on PP2A” value is “MCLR > MCLW > MCLA > MCLF > MCLY”. Regarding MCLR, the “inhibition effect on PP2A” value is reported as “much higher inhibition effect than other MCs” and the “inhibition sequence on PP2A” value is on record as “MCLR > MCLW > MCLA > MCLF > MCLY”. In the case of MCLF, the “inhibition sequence on PP2A” value is “MCLR > MCLW > MCLA > MCLF > MCLY”.
